# Where a name gives a salt, the structure may show the parent alone.
# What was measured:
# [1] = target: cloned human P2Y1 receptors (Homo sapiens (Human), UniProt P47900); assay: Binding Assay B: Scintillation Proximity Assay (SPA) for P2Y1 binding; settings: SPA, [33P] 2MeS-ADP displacement; read-out: P2Y1 Ki (nM) using binding assay B
# Outline: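 Scintillation proximity readout of 0.3 nM [^33P] tracer displacement from receptor membranes (~15 fmol receptor, 1.7 μg protein). Binding ran 1 h at room temperature to completion; plates were then centrifuged and aqueous phase aspirated before counting.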
# [2] = tested on: human platelet rich plasma (PRP); assay: ADP induced platelet aggregation assay; settings: Homo sapiens, Platelet, read-out: PA IC50 (μM) @ 10 μM ADP, platelet aggregation induced by 10 μM ADP, human PRP
# Chain of cloned human P2Y1 receptors (P47900 whole entry): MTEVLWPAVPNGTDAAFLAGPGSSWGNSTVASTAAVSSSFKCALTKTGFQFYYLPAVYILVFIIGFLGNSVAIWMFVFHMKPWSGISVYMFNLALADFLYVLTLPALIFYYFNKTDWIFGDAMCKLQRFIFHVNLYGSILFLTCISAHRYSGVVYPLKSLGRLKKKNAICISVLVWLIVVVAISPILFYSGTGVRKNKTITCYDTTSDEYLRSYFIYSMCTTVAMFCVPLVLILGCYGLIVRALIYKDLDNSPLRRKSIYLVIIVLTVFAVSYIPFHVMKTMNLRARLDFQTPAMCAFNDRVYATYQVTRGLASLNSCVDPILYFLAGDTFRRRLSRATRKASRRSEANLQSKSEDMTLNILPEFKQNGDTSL
Structure (SMILES),Ki [1],IC50 [2]
"COC(=O)c1ccc(O)c2c1C1(CCN(CC(C)(C)C)CC1)CN2c1ccccc1NC(=O)Nc1ccc(OC(F)(F)F)cc1 [Example 79, Methyl 7-hydroxy-1′-neopentyl-1-(2-(3-(4-(trifluoromethoxy)phenyl)ureido)phenyl)-spiro[indoline-3,4′-piperidine]-4-carboxylate]",9 nM,0.7 µM
"CC(C)(C)CN1CCC2(CC1)CN(c1ccccc1NC(=O)Nc1ccc(OC(F)(F)F)cc1)c1c(O)cc(F)c(-c3ccc(F)cc3)c12 [Example 155, 1-(2-(5-Fluoro-4-(4-fluorophenyl)-7-hydroxy-1′-neopentylspiro[indoline-3,4′-piperidin]-1-yl)phenyl)-3-(4-(trifluoromethoxy)phenyl)urea]",22.5 nM,0.1 µM
"CC(C)(C)CN1CCC2(CC1)CN(c1ccccc1NC(=O)Nc1ccc(OC(F)(F)F)cc1)c1c(O)ccc(F)c12 [Example 6, 1-(2-(4-Fluoro-7-hydroxy-1′-neopentylspiro[indoline-3,4′-piperidine]-1-yl)phenyl)-3-(4-(trifluoromethoxy)phenyl)urea]",4.4 nM,0.9 µM
"CC(C)(C)CN1CCC2(CC1)CN(c1ccccc1NC(=O)Nc1nc3ccc(Cl)nc3s1)c1c(O)ccc(-c3nc4c(Cl)cccc4s3)c12 [Example 117, 1-(2-(4-(4-Chlorobenzo[d]thiazol-2-yl)-7-hydroxy-1′-neopentylspiro[indoline-3,4′-piperidin]-1-yl)phenyl)-3-(5-chlorothiazolo[5,4-b]pyridin-2-yl)urea]",29.6 nM,0.6 µM
"CC(C)CN1CCC2(CC1)CN(c1ccccc1NC(=O)Nc1nc3ccc(Cl)cc3s1)c1c(O)ccc(Cl)c12 [Example 65, 1-(2-(4-Chloro-7-hydroxy-1′-isobutylspiro[indoline-3,4′-piperidine]-1-yl)phenyl)-3-(6-chlorobenzo[d]thiazol-2-yl)urea]",7.8 nM,0.4 µM
"CC(C)(C)CN1CCC2(CC1)CN(c1ccccc1NC(=O)Nc1ccc(OC(F)(F)F)cc1)c1c(O)cc(F)c(-c3ccc(C(F)(F)F)nc3)c12 [Example 160, 1-(2-(5-Fluoro-7-hydroxy-1′-neopentyl-4-(6-(trifluoromethyl)pyridin-3-yl)spiro[indoline-3,4′-piperidin]-1-yl)phenyl)-3-(4-(trifluoromethoxy)phenyl)urea]",199 nM,0.1 µM
"CC(C)(C)CN1CCC2(CC1)CN(c1ccccc1NC(=O)Nc1nc3ccc(F)cc3s1)c1c(O)ccc(-c3nc4cc(F)ccc4s3)c12 [Example 138, 1-(6-Cluorobenzo[d]thiazol-2-yl)-3-(2-(4-(5-fluorobenzo[d]thiazol-2-yl)-7-hydroxy-1′-neopentylspiro[indoline-3,4′-piperidin]-1-yl)phenyl)urea]",24.6 nM,0.2 µM
"COc1ccc2nc(-c3ccc(O)c4c3C3(CCN(CC(C)(C)C)CC3)CN4c3ccccc3NC(=O)Nc3ccc(OC(F)(F)F)cc3)sc2c1 [Example 130, 1-(2-(7-Hydroxy-4-(6-methoxybenzo[d]thiazol-2-yl)-1′-neopentylspiro[indoline-3,4′-piperidin]-1-yl)phenyl)-3-(4-(trifluoromethoxy)phenyl)urea]",16.8 nM,0.6 µM
"COc1ccc2nc(NC(=O)Nc3ccccc3N3CC4(CCN(CC(C)(C)C)CC4)c4c(-c5nc6cc(F)ccc6s5)ccc(O)c43)sc2c1 [Example 146, 1-(2-(4-(5-Fluorobenzo[d]thiazol-2-yl)-7-hydroxy-1′-neopentylspiro[indoline-3,4′-piperidin]-1-yl)phenyl)-3-(6-methoxybenzo[d]thiazol-2-yl)urea]",11.2 nM,0.6 µM
"CC(C)(C)CN1CCC2(CC1)CN(c1ccc(C#N)cc1NC(=O)Nc1ccc(OC(F)(F)F)cc1)c1c(O)ccc(Cl)c12 [Example 69, 1-(2-(4-Chloro-7-hydroxy-1′-neopentylspiro[indoline-3,4′-piperidine]-1-yl)-5-cyanophenyl)-3-(4-(trifluoromethoxy)phenyl)urea]",21.4 nM,0.8 µM
"CC(C)CN1CCC2(CC1)CN(c1ccccc1NC(=O)Nc1ccc(OC(F)(F)F)cc1)c1c(O)ccc(C(F)(F)F)c12 [Example 106, 1-(2-(7-Hydroxy-1′-isobutyl-4-(trifluoromethyl)spiro [indoline-3,4′-piperidine]-1-yl)phenyl)-3-(4-(trifluoromethoxy)phenyl) urea]",10.6 nM,0.1 µM
"CC(C)(C)CN1CCC2(CC1)CN(c1ccccc1NC(=O)Nc1ccc(OC(F)(F)F)cc1)c1c(O)cc(F)c(-c3nc4ccc(F)cc4s3)c12 [Example 147, 1-(2-(5-Fluoro-4-(6-fluorobenzo[d]thiazol-2-yl)-7-hydroxy-1′-neopentylspiro[indoline-3,4′-piperidin]-1-yl)phenyl)-3-(4-(trifluoromethoxy)phenyl)urea]",14.8 nM,0.5 µM
"CC(C)(C)CN1CCC2(CC1)CN(c1ccccc1NC(=O)Nc1nc3ccc(Cl)cc3s1)c1c(O)cc(F)c(-c3ccc(C(F)(F)F)nc3)c12 [Example 162, 1-(6-Chlorobenzo[d]thiazol-2-yl)-3-(2-(5-fluoro-7-hydroxy-1′-neopentyl-4-(6-(trifluoromethyl)pyridin-3-yl)spiro[indoline-3,4′-piperidin]-1-yl)phenyl)urea]",65.5 nM,0.5 µM
"CCN(CC)S(=O)(=O)c1ccc(O)c2c1C1(CCN(CC(C)(C)C)CC1)CN2c1ccccc1NC(=O)Nc1ccc(OC(F)(F)F)cc1 [Example 91, N,N-Diethyl-7-hydroxy-1′-neopentyl-1-(2-(3-(4-(trifluoromethoxy)phenyl)ureido)phenyl)spiro [indoline-3,4′-piperidine]-4-sulfonamide trifluoroacetic acid salt]",3.4 nM,0.3 µM
"CC(C)(C)CN1CCC2(CC1)CN(c1ccccc1NC(=O)Nc1ccc(OC(F)(F)F)cc1)c1c(O)ccc(-c3nc4cccc(Cl)c4s3)c12 [Example 123, 1-(2-(4-(7-Chlorobenzo[d]thiazol-2-yl)-7-hydroxy-1′-neopentylspiro[indoline-3,4′-piperidin]-1-yl)phenyl)-3-(4-(trifluoromethoxy)phenyl)urea]",32.5 nM,0.6 µM
"Cc1ccc2nc(NC(=O)Nc3ccccc3N3CC4(CCN(CC(C)(C)C)CC4)c4c(C#N)ccc(O)c43)sc2c1 [Example 84, 1-(2-(4-Cyano-7-hydroxy-1′-neopentylspiro[indoline-3,4′-piperidine]-l-yl)phenyl)-3-(6-methylbenzo[d]thiazol-2-yl) urea, trifluoroacetic acid salt]",11.8 nM,0.5 µM
"CC(C)(C)CN1CCC2(CC1)CN(c1ccccc1NC(=O)Nc1nc3c(s1)CSCC3)c1c(O)ccc(Cl)c12 [Example 49, 1-(2-(4-Chloro-7-hydroxy-1′-neopentylspiro[indoline-3,4′-piperidine]-1-yl)phenyl)-3-(6,7-dihydro-4H-thiopyrano[4,3-d]thiazol-2-yl)urea, TFA]",6.5 nM,0.3 µM
"CC(C)(C)CN1CCC2(CC1)CN(c1ccccc1NC(=O)Nc1ccc(F)cc1F)c1c(O)ccc(Cl)c12 [Example 54, 1-(2-(4-Chloro-7-hydroxy-1′-neopentylspiro[indoline-3,4′-piperidine]-1-yl)phenyl)-3-(2,4-difluorophenyl)urea]",9.6 nM,1.1 µM
"CC(C)(C)CN1CCC2(CC1)CN(c1ncccc1NC(=O)Nc1nc3ccc(Cl)nc3s1)c1c(O)ccc(C(F)(F)F)c12 [Example 176, 1-(5-Chlorothiazolo[5,4-b]pyridin-2-yl)-3-(2-(7-hydroxy-1′-neopentyl-4-(trifluoromethyl)spiro[indoline-3,4′-piperidine]-1-yl)pyridin-3-yl)urea]",7.2 nM,0.4 µM
"CC(C)(C)CN1CCC2(CC1)CN(c1ccccc1NC(=O)Nc1csc(Cl)n1)c1c(O)ccc(C(F)(F)F)c12 [Example 18, 1-(2-Chlorothiazol-4-yl)-3-(2-(7-hydroxy-1′-neopentyl-4-(trifluoromethyl)spiro[indoline-3,4′-piperidine]-1-yl)phenyl)urea]",6.2 nM,0.1 µM
"CC(C)(C)CN1CCC2(CC1)CN(c1ccccc1NC(=O)Nc1nc3ccc([N+](=O)[O-])cc3s1)c1c(O)ccc(Cl)c12 [Example 51, 1-(2-(4-Chloro-7-hydroxy-1′-neopentylspiro[indoline-3,4′-piperidine]-1-yl)phenyl)-3-(6-nitrobenzo[d]thiazol-2-yl)urea, TFA]",10.8 nM,0.5 µM
"CC(C)(C)CN1CCC2(CC1)CN(c1ccccc1NC(=O)Nc1nc3ccc(OC(F)(F)F)cc3s1)c1c(O)ccc(Cl)c12 [Example 52, 1-(2-(4-Chloro-7-hydroxy-1′-neopentylspiro[indoline-3,4′-piperidine]-1-yl)phenyl)-3-(6-(trifluoromethoxy)benzo[d]thiazol-2-yl)urea, TFA]",9.2 nM,0.3 µM
"CC(C)(C)CN1CCC2(CC1)CN(c1ccccc1NC(=O)Nc1ccc(F)cc1F)c1c(O)ccc(C(F)(F)F)c12 [Example 20, 1-(2,4-Difluorophenyl)-3-(2-(7-hydroxy-1′-neopentyl-4-(trifluoromethyl)spiro[indoline-3,4′-piperidine]-1-yl)phenyl)urea]",3.2 nM,0.2 µM
"COc1ccc2nc(-c3ccc(O)c4c3C3(CCN(CC(C)(C)C)CC3)CN4c3ccccc3NC(=O)Nc3nc4ccc(Cl)cc4s3)sc2c1 [Example 131, 1-(6-Chlorobenzo[d]thiazol-2-yl)-3-(2-(7-hydroxy-4-(6-methoxybenzo[d]thiazol-2-yl)-1′-neopentylspiro[indoline-3,4′-piperidin]-1-yl)phenyl)urea]",22.5 nM,1 µM
"CC(C)(C)CN1CCC2(CC1)CN(c1ccccc1NC(=O)Nc1nc3ccc(Cl)cc3s1)c1c(O)ccc(C(F)(F)F)c12 [Example 21, 1-(6-Chlorobenzo[d]thiazol-2-yl)-3-(2-(7-hydroxy-1′-neopentyl-4-(trifluoromethyl)spiro[indoline-3,4′-piperidine]-1-yl)phenyl)urea]",30.9 nM,0.4 µM

# Source: US9428504B2, “7-hydroxy-spiropipiperidine indolinyl antagonists of P2Y1 receptor” (BRISTOL-MYERS SQUIBB COMPANY, priority 2012, dated 2016)
